# Test results published in patent US9393308B2, “Micelle structure of nano preparation for diagnosis or treatment of cancer disease and preparation method thereof” (KOREA ADVANCED INSTITUTE OF SCIENCE AND TECHNOLOGY, priority 2013, dated 2016).
# How the values were obtained:
# [1] = tested on: U251MG, which is a human malignant glioma cell; assay: Cytotoxicity when light is not irradiated (WST-1, dark room condition); assay type: cell-based; conditions: 10 μM or less, 2 h treatment, 24 h additional culture
# Procedure: In order to evaluate cytotoxicity, U251MG, which is a human malignant glioma cell, was obtained from American Type Culture Collection (ATCC, Manassas, Va., USA). The obtained cell was cultured in a Dulbecco's Modified Eagle's Medium including the nutrient mixture F-12, 10% fetal bovine serum, an antibiotic (penicillin (100 I.U./mL), and streptomycin (100 μg/mL)), and the 0.1 mM MEM non-essential amino acid solution under conditions of 37° C. and 5% carbon dioxide. 5×10^4 cell/well of the cultured cells were dispensed into a 24-well plate, and DMEM/F12 medium (1 mL) was injected four times for each sample. The medium was removed 24 hours after culture, and media respectively including nanopreparations prepared in Example 1 and Comparative Examples 2 and 3 in concentrations of 1.0, 2.5, 5.0, and 10 μM were injected. In this case, the volume of the nanopreparations included in the injected medium was set not to exceed 1.0% of the total volume of the medium. […] Then, absorbance of the culture medium was measured at the wavelength of 450 nm by using an absorbance microplate reader. In this case, the aforementioned whole procedure was performed at a dark room condition, and cell viability was derived from the measured normalized absorbance.
# [2] = tested on: U251MG, which is a human malignant glioma cell; assay: Light induced cytotoxicity by light irradiation (590 to 605 nm, 0.1 J/cm^2); assay type: cell-based; conditions: light 590 to 605 nm, 5 mW/cm^2, 0.1 J/cm^2, 12 hours culture
# Procedure: 1×10^4 cell/well of U251MG, which is a human malignant glioma cell, were dispensed into a 96-well plate, and a DMEM/F12 medium (100 μL) was injected four times for each sample. 24 hours after culture, the medium was replaced with media respectively including the nanopreparations prepared in Example 1 and Comparative Examples 2 and 3 (sample treatment group) and a medium without the nanopreparation (non-treatment group). The samples were cultured at the dark room condition for 2 hours, washed with phosphate buffered saline (PBS). Then, media was replaced again with media without the nanopreparation. Subsequently, 5 mW/cm^2 of lighting power of light (590 to 605 nm) was irradiated through a light irradiation system (LIS) so that total energy applied to each cell is adjusted to 0.1 J/cm^2 to perform photodynamic diagnosis (photodynamic therapy). Each cell was cultured for 12 hours at the light irradiation condition. The cultured cell was subjected to the same method as Experimental Example 3 to measure light-cytotoxicity. Light induced cytotoxicity and light induced cytotoxicity efficiency were derived from the measured values by using Equations 1 and 2.
compound,measurement,setting,value
"Cc1cc(O)c2c(=O)c3c(O)cc(O)c4c5c(O)cc(O)c6c(=O)c7c(O)cc(C)c8c1c2c(c34)c(c78)c65 [Comparative Example 2, Hypericin]",toxicity to cells when light is not irradiated,[1],do not have toxicity to cells
same,light toxicity (light induced cytotoxicity efficiency),[2],1.00±0.04 % mg/A.U. mL
